{"source": "PubChem BioAssay AID328", "about": "(DTP/NCI, 2004)", "tested_on": "BDF1 mice, P388 leukemia ip, median survival T/C", "assay": "NCI In Vivo Anticancer Drug Screen. Data for tumor model P388 Leukemia (intraperitoneal) in B6D2F1 (BDF1) mice", "conditions": "endpoint: median survival time, higher = longer survival", "how_it_was_run": "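Reported as T/C, where T is the survival measurement in dosed animals and C the same measurement in vehicle controls.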", "note": "Values joined by “and” are separate entries in the source; they are usually repeats but may differ in a detail not shown here. Equal entries are not always repeated. Inconclusive results and toxic doses are left out."}
{"smiles": "COc1cc(NS(C)(=O)=O)ccc1Nc1c2ccccc2nc2ccccc12", "values": [{"measurement": "T/C", "setting": "dose: 0.25 mg/kg/injection, schedule: Q01DX009 (ip), vehicle: other", "result": "154 % of control"}, {"measurement": "T/C", "setting": "dose: 0.25 mg/kg/injection, schedule: Q01DX009 (ip), vehicle: saline", "result": "150 % of control"}, {"measurement": "T/C", "setting": "dose: 0.5 mg/kg/injection, schedule: Q01DX009 (ip), vehicle: other", "result": "161 % of control and 175 % of control"}, {"measurement": "T/C", "setting": "dose: 0.57 mg/kg/injection, schedule: Q01DX009 (ip), vehicle: Klucel (hydroxypropylcellulose) (HPC)", "result": "210 % of control"}, {"measurement": "T/C", "setting": "dose: 0.8 mg/kg/injection, schedule: Q01DX005 (ip), vehicle: other", "result": "182 % of control"}, {"measurement": "T/C", "setting": "dose: 0.8 mg/kg/injection, schedule: Q01DX005 (iv), vehicle: other", "result": "104 % of control and 109 % of control"}, {"measurement": "T/C", "setting": "dose: 0.8 mg/kg/injection, schedule: Q04DX003 (iv), vehicle: other", "result": "108 % of control"}, {"measurement": "T/C", "setting": "dose: 0.85 mg/kg/injection, schedule: Q01DX009 (ip), vehicle: Klucel (hydroxypropylcellulose) (HPC)", "result": "195 % of control"}, {"measurement": "T/C", "setting": "dose: 1.0 mg/kg/injection, schedule: Q01DX009 (ip), vehicle: other", "result": "175 % of control and 195 % of control"}, {"measurement": "T/C", "setting": "dose: 1.3 mg/kg/injection, schedule: Q01DX009 (ip), vehicle: Klucel (hydroxypropylcellulose) (HPC)", "result": "173 % of control"}, {"measurement": "T/C", "setting": "dose: 1.56 mg/kg/injection, schedule: Q01DX009 (ip), vehicle: Klucel (hydroxypropylcellulose) (HPC)", "result": "166 % of control"}, {"measurement": "T/C", "setting": "dose: 1.6 mg/kg/injection, schedule: Q01DX005 (ip), vehicle: other", "result": "202 % of control"}, {"measurement": "T/C", "setting": "dose: 1.6 mg/kg/injection, schedule: Q01DX005 (iv), vehicle: other", "result": "115 % of control and 120 % of control"}, {"measurement": "T/C", "setting": "dose: 1.6 mg/kg/injection, schedule: Q04DX003 (iv), vehicle: other", "result": "107 % of control"}, {"measurement": "T/C", "setting": "dose: 2.0 mg/kg/injection, schedule: Q01DX009 (ip), vehicle: Klucel (hydroxypropylcellulose) (HPC)", "result": "169 % of control"}, {"measurement": "T/C", "setting": "dose: 2.0 mg/kg/injection, schedule: Q01DX009 (ip), vehicle: other", "result": "193 % of control and 216 % of control"}, {"measurement": "T/C", "setting": "dose: 3.3 mg/kg/injection, schedule: Q01DX005 (ip), vehicle: other", "result": "220 % of control"}, {"measurement": "T/C", "setting": "dose: 3.3 mg/kg/injection, schedule: Q04DX003 (iv), vehicle: other", "result": "122 % of control"}, {"measurement": "T/C", "setting": "dose: 3.6 mg/kg/injection, schedule: Q04DX003 (ip), vehicle: clinical formulation", "result": "192 % of control"}, {"measurement": "T/C", "setting": "dose: 3.6 mg/kg/injection, schedule: Q04DX003 (ip), vehicle: other", "result": "215 % of control"}, {"measurement": "T/C", "setting": "dose: 4.12 mg/kg/injection, schedule: Q01DX009 (ip), vehicle: Klucel (hydroxypropylcellulose) (HPC)", "result": "227 % of control and 204 % of control"}, {"measurement": "T/C", "setting": "dose: 5.4 mg/kg/injection, schedule: Q04DX003 (ip), vehicle: clinical formulation", "result": "210 % of control"}, {"measurement": "T/C", "setting": "dose: 6.0 mg/kg/injection, schedule: Q04DX003 (ip), vehicle: clinical formulation", "result": "211 % of control"}, {"measurement": "T/C", "setting": "dose: 6.0 mg/kg/injection, schedule: Q04DX003 (ip), vehicle: other", "result": "169 % of control"}, {"measurement": "T/C", "setting": "dose: 6.25 mg/kg/injection, schedule: Q01DX009 (ip), vehicle: Klucel (hydroxypropylcellulose) (HPC)", "result": "236 % of control and 259 % of control and 272 % of control"}, {"measurement": "T/C", "setting": "dose: 6.5 mg/kg/injection, schedule: Q04DX003 (iv), vehicle: other", "result": "116 % of control"}, {"measurement": "T/C", "setting": "dose: 6.6 mg/kg/injection, schedule: Q04DX003 (ip), vehicle: other", "result": "236 % of control"}, {"measurement": "T/C", "setting": "dose: 6.6 mg/kg/injection, schedule: Q08DX002 (ip), vehicle: other", "result": "191 % of control"}, {"measurement": "T/C", "setting": "dose: 6.6 mg/kg/injection, schedule: Q08DX002 (iv), vehicle: other", "result": "118 % of control"}, {"measurement": "T/C", "setting": "dose: 7.0 mg/kg/injection, schedule: Q04DX003 (ip), vehicle: lactic acid", "result": "225 % of control and 263 % of control and 272 % of control"}, {"measurement": "T/C", "setting": "dose: 7.0 mg/kg/injection, schedule: Q04DX003 (ip), vehicle: saline with Tween-80", "result": "240 % of control"}, {"measurement": "T/C", "setting": "dose: 9.0 mg/kg/injection, schedule: Q04DX003 (ip), vehicle: clinical formulation", "result": "215 % of control"}, {"measurement": "T/C", "setting": "dose: 9.37 mg/kg/injection, schedule: Q01DX009 (ip), vehicle: Klucel (hydroxypropylcellulose) (HPC)", "result": "268 % of control and 104 % of control"}, {"measurement": "T/C", "setting": "dose: 10.0 mg/kg/injection, schedule: Q04DX003 (ip), vehicle: clinical formulation", "result": "248 % of control"}, {"measurement": "T/C", "setting": "dose: 10.0 mg/kg/injection, schedule: Q04DX003 (ip), vehicle: other", "result": "225 % of control and 272 % of control"}, {"measurement": "T/C", "setting": "dose: 10.0 mg/kg/injection, schedule: Q08DX002 (ip), vehicle: other", "result": "193 % of control"}, {"measurement": "T/C", "setting": "dose: 11.0 mg/kg/injection, schedule: Q04DX003 (ip), vehicle: lactic acid", "result": "291 % of control and 354 % of control and 541 % of control"}, {"measurement": "T/C", "setting": "dose: 11.0 mg/kg/injection, schedule: Q04DX003 (ip), vehicle: saline with Tween-80", "result": "295 % of control"}, {"measurement": "T/C", "setting": "dose: 12.5 mg/kg/injection, schedule: Q01DX009 (ip), vehicle: Klucel (hydroxypropylcellulose) (HPC)", "result": "260 % of control"}, {"measurement": "T/C", "setting": "dose: 15.0 mg/kg/injection, schedule: Q04DX003 (ip), vehicle: other", "result": "111 % of control"}, {"measurement": "T/C", "setting": "dose: 15.0 mg/kg/injection, schedule: Q04DX003 (iv), vehicle: other", "result": "157 % of control"}, {"measurement": "T/C", "setting": "dose: 15.0 mg/kg/injection, schedule: Q08DX002 (ip), vehicle: other", "result": "245 % of control"}, {"measurement": "T/C", "setting": "dose: 16.0 mg/kg/injection, schedule: Q04DX003 (ip), vehicle: lactic acid", "result": "190 % of control"}, {"measurement": "T/C", "setting": "dose: 16.0 mg/kg/injection, schedule: Q04DX003 (ip), vehicle: saline with Tween-80", "result": "377 % of control"}, {"measurement": "T/C", "setting": "dose: 16.7 mg/kg/injection, schedule: Q04DX003 (ip), vehicle: clinical formulation", "result": "118 % of control"}, {"measurement": "T/C", "setting": "dose: 22.6 mg/kg/injection, schedule: Q04DX003 (iv), vehicle: other", "result": "170 % of control"}, {"measurement": "T/C", "setting": "dose: 22.6 mg/kg/injection, schedule: Q08DX002 (iv), vehicle: other", "result": "190 % of control"}, {"measurement": "T/C", "setting": "dose: 26.0 mg/kg/injection, schedule: Q04DX003 (iv), vehicle: other", "result": "203 % of control"}, {"measurement": "T/C", "setting": "dose: 34.0 mg/kg/injection, schedule: Q04DX003 (iv), vehicle: other", "result": "200 % of control"}, {"measurement": "T/C", "setting": "dose: 34.0 mg/kg/injection, schedule: Q08DX002 (iv), vehicle: other", "result": "200 % of control"}]}
